The numbers were not newly measured in article PMC7395068, “The evolution of strategies to minimise the risk of human drug-induced liver injury (DILI) in drug discovery and development” (Archives of Toxicology, 2020), which cites them from elsewhere.

For the data set the following is noted: cited from earlier work.
Setting [1] is: binary in vivo human DILI call, ref Chen 2016.
Where [2] appears, read: human DILI, LTKB DILIrank category, ref Chen 2016.
The mark [3] stands for this setting: LTKB DILIrank category, ref Chen 2016.
[4] abbreviates: binary DILI call, ref Chen 2016.
Setting [5] is: binary in vivo DILI call given beside the severity category, ref Chen 2016.
[6] abbreviates: human DILI concern category (LTKB DILIrank), ref Chen 2016.

Like-named read-outs stand apart in the source and are kept apart here.

On to `CCOC(=O)C1(c2ccccc2)CCN(CCC(C#N)(c2ccccc2)c2ccccc2)CC1` [diphenoxylate], for which the “DILI +VE (5-8), DILI -VE (-4)” value under setting [1] is reported as “-VE”. Besides, the DILI severity category entry under setting [2] is on record as “vNo-DILI-Concern”.
With `N=C(N)N` [guanidine], under “in vivo”, the “DILI +VE (5-8), DILI -VE (-4)” value is given as “-VE” and the DILI severity category result is on record as “Ambiguous DILI-concern”.
With Argipressin, the DILI severity category entry under setting [3] is listed as “vNo-DILI-Concern”. The “DILI +VE (5-8), DILI -VE (-4)” value under setting [4] is on record as “-VE”.
For `C=CCC1(C(C)C#CCC)C(=O)N=C(O)N(C)C1=O` (stereo not shown) [methohexital], the “DILI +VE (5-8), DILI -VE (-4)” value under setting [5] is on record as “-VE”. In addition, the DILI severity category entry under setting [6] is “Ambiguous DILI-concern”.
`CC(C)CC(N(C)C)C1(c2ccc(Cl)cc2)CCC1` (stereo not shown) [sibutramine]: where the note is “in vivo”, the “DILI +VE (5-8), DILI -VE (-4)” value is “+VE” and the DILI severity category result was “vLess-DILI-Concern”.
Regarding `c1cc(CN2CCCNCCNCCCNCC2)ccc1CN1CCCNCCNCCCNCC1` [plerixafor], the “DILI +VE (5-8), DILI -VE (-4)” value under setting [5] is “-VE”. For the same compound, the DILI severity category result under setting [6] is given as “vNo-DILI-Concern”.
For the compound `COc1ccc2c(C(=O)c3ccc(Cl)cc3)c(C)n(CC(=O)O)c2c1` [clometacin], the DILI severity category result under setting [3] is listed as “vMost-DILI-Concern”.
Turning to `CC1=C(C(=O)O)N2C(=O)[C@@H](NC(=O)[C@H](N)c3ccc(O)cc3)[C@H]2SC1` [cefadroxil], the DILI severity category result under setting [3] is listed as “vLess-DILI-Concern”.
With `N=C(N)c1ccc(OCCCCCOc2ccc(C(=N)N)cc2)cc1` [pentamidine], the “DILI +VE (5-8), DILI -VE (-4)” value under setting [5] is listed as “+VE”. For the same compound, the DILI severity category result under setting [6] is reported as “vLess-DILI-Concern”.
On to `C=CCC1(C(C)CCC)C(=O)NC(=O)NC1=O` (stereo not shown) [secobarbital], for which the “DILI +VE (5-8), DILI -VE (-4)” value under setting [5] is reported as “-VE”. Moreover, the DILI severity category result under setting [6] is “Ambiguous DILI-concern”.
As to `O=C(O)[C@@H](S)[C@@H](S)C(=O)O` [succimer], under setting [5], the “DILI +VE (5-8), DILI -VE (-4)” value is “+VE”. Besides, the DILI severity category entry under setting [6] was “vLess-DILI-Concern”.
Take `NC(=O)C[S@@+]([O-])C(c1ccccc1)c1ccccc1` [armodafinil]: the DILI severity category result under setting [3] is “Ambiguous DILI-concern”. In addition, the “DILI +VE (5-8), DILI -VE (-4)” value under setting [4] is listed as “-VE”.
Regarding `CN1C(=O)CCS(=O)(=O)C1c1ccc(Cl)cc1` (stereo not shown) [chlormezanone], under “in vivo”, the “DILI +VE (5-8), DILI -VE (-4)” value is “+VE” and the DILI severity category entry is “vMost-DILI-Concern”.
For the compound `CCC[C@@H]1C[C@@H](C(=O)N[C@@H]([C@H]2O[C@H](SC)[C@H](OP(=O)(O)O)[C@@H](O)[C@H]2O)[C@H](C)Cl)N(C)C1` [clindamycin-2-phosphate], the DILI severity category result (in vivo) is “Ambiguous DILI-concern”.
For the compound `NCCc1cnc[nH]1.O=P(O)(O)O.O=P(O)(O)O` [histamine diphosphate], where the note is “in vivo”, the “DILI +VE (5-8), DILI -VE (-4)” value is given as “-VE” and the DILI severity category result is listed as “vNo-DILI-Concern”.
In the case of `CCOC(=O)[C@H](CCc1ccccc1)N[C@@H](C)C(=O)N1[C@H](C(=O)O)C[C@H]2CCCC[C@@H]21` [trandolapril], the “DILI +VE (5-8), DILI -VE (-4)” value under setting [5] is “+VE”. Also, the DILI severity category result under setting [6] is listed as “vLess-DILI-Concern”.
Consider `CN1CC(=O)N2[C@H](c3ccc4c(c3)OCO4)c3[nH]c4ccccc4c3C[C@@H]2C1=O` [tadalafil], for which, under setting [5], the “DILI +VE (5-8), DILI -VE (-4)” value was “-VE”. The DILI severity category result under setting [6] is given as “Ambiguous DILI-concern”.
As to `CC1(C)C(/C=C/C=C/C=C/C=C2\N(CCCCS(=O)(=O)O)c3ccc4ccccc4c3C2(C)C)=[N+](CCCCS(=O)(=O)[O-])c2ccc3ccccc3c21` [indocyanine green], under setting [1], the “DILI +VE (5-8), DILI -VE (-4)” value was “-VE”. Besides, under setting [2], the DILI severity category result is recorded as “vNo-DILI-Concern”.
As for `C[C@@H](O[C@H]1OCCN(Cc2nc(O)n(P(=O)(O)O)n2)[C@H]1c1ccc(F)cc1)c1cc(C(F)(F)F)cc(C(F)(F)F)c1` [fosaprepitant], the “DILI +VE (5-8), DILI -VE (-4)” value under setting [1] is reported as “-VE”. In addition, under setting [2], the DILI severity category entry is recorded as “Ambiguous DILI-concern”.
As for basiliximab, under “in vivo”, the “DILI +VE (5-8), DILI -VE (-4)” value is on record as “-VE” and the DILI severity category entry is “vNo-DILI-Concern”.
Take `CCC(=O)O[C@@H](O[P@](=O)(CCCCc1ccccc1)CC(=O)N1C[C@H](C2CCCCC2)C[C@H]1C(=O)O)C(C)C` [fosinopril]: the “DILI +VE (5-8), DILI -VE (-4)” value under setting [1] is on record as “+VE”. Moreover, the DILI severity category entry under setting [2] is “vLess-DILI-Concern”.
With `COCC1=C(C(=O)O)N2C(=O)[C@@H](NC(=O)/C(=N\OC)c3csc(N)n3)[C@H]2SC1` [cefpodoxime], under setting [3], the DILI severity category entry is reported as “Ambiguous DILI-concern”. In addition, the “DILI +VE (5-8), DILI -VE (-4)” value under setting [4] is given as “-VE”.
Turning to `CN1c2c(nc(N)[nH]c2=O)NC[C@@H]1CNc1ccc(C(=O)N[C@@H](CCC(=O)O)C(=O)O)cc1` [levomefolate calcium], for the setting “in vivo”, the “DILI +VE (5-8), DILI -VE (-4)” value is reported as “-VE” and the DILI severity category result was “vNo-DILI-Concern”.
With `Cc1c(OCC(F)(F)F)ccnc1C[S+]([O-])c1nc2ccccc2[nH]1` (stereo not shown) [lansoprazole], the “DILI +VE (5-8), DILI -VE (-4)” value under setting [1] is reported as “+VE”. Further, the DILI severity category entry under setting [2] is “vLess-DILI-Concern”.
For the compound `CCC[C@@H]1C[C@@H](C(=O)N[C@@H]([C@H]2O[C@H](SC)[C@H](O)[C@@H](O)[C@H]2O)[C@H](C)Cl)N(C)C1` [clindamycin], the DILI severity category entry (in vivo) is on record as “vLess-DILI-Concern”.
On to `C/C(=C\c1csc(C)n1)[C@@H]1C[C@@H]2O[C@]2(C)CCC[C@H](C)[C@H](O)[C@@H](C)C(=O)C(C)(C)[C@@H](O)CC(=O)N1` [ixabepilone], for which, under setting [1], the “DILI +VE (5-8), DILI -VE (-4)” value is recorded as “-VE”. The DILI severity category result under setting [2] is on record as “Ambiguous DILI-concern”.
On to `O=C1c2cccc3c2[C@H](CCC3)CN1[C@@H]1CN2CCC1CC2` [palonosetron], for which the “DILI +VE (5-8), DILI -VE (-4)” value under setting [5] was “-VE”. For the same compound, under setting [6], the DILI severity category entry was “Ambiguous DILI-concern”.
Regarding abciximab, under “in vivo”, the “DILI +VE (5-8), DILI -VE (-4)” value was “-VE” and the DILI severity category result was “vNo-DILI-Concern”.
With botulinum toxin type a, where the note is “in vivo”, the “DILI +VE (5-8), DILI -VE (-4)” value was “-VE” and the DILI severity category entry is reported as “vNo-DILI-Concern”.
In the case of teriparatide, where the note is “in vivo”, the “DILI +VE (5-8), DILI -VE (-4)” value was “-VE” and the DILI severity category result is given as “vNo-DILI-Concern”.
`CCCCCCCC/C=C\CCCCCCCC(=O)O.NCCO` [ethanolamine oleate]: the “DILI +VE (5-8), DILI -VE (-4)” value under setting [1] is “-VE”. Further, the DILI severity category entry under setting [2] is on record as “vNo-DILI-Concern”.
Regarding `C[C@]12CCC(=O)C=C1CC[C@@H]1[C@@H]2CC[C@@]2(C)[C@H]1CC[C@]2(C)O` [methyltestosterone], the “DILI +VE (5-8), DILI -VE (-4)” value under setting [5] is reported as “+VE”. Besides, the DILI severity category result under setting [6] is listed as “vLess-DILI-Concern”.
With `[Cl][Cu][Cl]` [cupric chloride], under “in vivo”, the “DILI +VE (5-8), DILI -VE (-4)” value was “-VE” and the DILI severity category result is reported as “vNo-DILI-Concern”.
Regarding `CC(C)(CO)[C@@H](O)C(=O)NCCCO` [dexpanthenol], under “in vivo”, the “DILI +VE (5-8), DILI -VE (-4)” value is given as “-VE” and the DILI severity category entry is “vNo-DILI-Concern”.
Consider `NC(=O)NS(=O)(=O)c1ccc(N)cc1` [sulfacarbamide], for which the “DILI +VE (5-8), DILI -VE (-4)” value under setting [5] is reported as “+VE”. Moreover, the DILI severity category result under setting [6] is reported as “vMost-DILI-Concern”.
As to pentosan polysulfate, for the setting “in vivo”, the “DILI +VE (5-8), DILI -VE (-4)” value is reported as “-VE” and the DILI severity category entry is given as “Ambiguous DILI-concern”.
Turning to `CC(O)CN1CCN(CC(=O)[O-])CCN(CC(=O)[O-])CCN(CC(=O)[O-])CC1.[Gd+3]` (stereo not shown) [gadoteridol], under “in vivo”, the “DILI +VE (5-8), DILI -VE (-4)” value is reported as “-VE” and the DILI severity category entry is reported as “vNo-DILI-Concern”.
